Results from patent publication US20120214862A1, “MODULATION OF FACTOR 7 EXPRESSION” (ISIS Pharmaceuticals, Inc., priority 2009, published 2012).
In the oligonucleotide strings, read from the 5' end, every base follows the letter of its sugar. An asterisk marks phosphorothioate; unmarked linkages are phosphodiester. Other units and linkages are bracketed, terminal groups are in braces. A string of capitals states the bases alone. e = 2'-O-(2-methoxyethyl) (MOE); [5mC] = 5-methylcytosine; d = 2'-deoxy (DNA)

Key:
Type in all cases: cell-based
human Factor 7 mRNA [1] = assay: Antisense inhibition of human Factor 7 mRNA in HepB3 cells, lipofectin, 50 nM, real-time RT-PCR; settings: HepB3 cells
Procedure, shortened: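 Readout is percent reduction of Factor 7 message compared with untreated cells, after correction for total RNA content quantified by RIBOGREEN®. Cultures were seeded at 4,000 cells per well and treated for about 24 hours before RNA extraction.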

human Factor 7 mRNA [2] = assay: Dose-dependent antisense inhibition of human Factor 7 in HepB3 cells, transfection with lipofectin; settings: lipofectin, HepB3 cells, 16 hours
Procedure, shortened: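 HepB3 cells (4,000/well) lipofectin-transfected with antisense oligonucleotide at 3.125 or 6.25 up to 100 nM for ~16 h. Factor 7 mRNA measured by real-time RT-PCR with primer probe set RTS 2927, adjusted to RIBOGREEN total RNA; expressed as percent inhibition versus untreated control cells.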

human Factor 7 mRNA [3] = assay: Dose-dependent antisense inhibition of human Factor 7 in HepB3 cells, transfection with electroporation
Experimental: (§1) The gapmers were also transfected via electroporation and their dose-dependent inhibition of human Factor 7 mRNA was measured. Cells were plated at a density of 20,000 cells per well and transfected via electroporation with 3.125 μM, 6.25 μM, 12.5 μM, 25 μM, 50 μM, and 100 μM concentrations of antisense oligonucleotide, as specified in Table 15. After a treatment period of approximately 16 hours, RNA was isolated from the cells and Factor 7 mRNA levels were measured by quantitative real-time PCR. Human Factor 7 primer probe set RTS 2927 was used to measure mRNA levels. Factor 7 mRNA levels were adjusted according to total RNA content, as measured by RIBOGREEN®. Results are presented as percent inhibition of Factor 7, relative to untreated control cells.
as §1, with “Cells were” for “The gapmers were also transfected via electroporation and their dose-dependent inhibition of human Factor 7 mRNA was measured. Cells were”, “in Table 16. After a” for “in Table 15. After a”, “cells and human Factor 7” for “cells and Factor 7”

[4] = gapmers (5-10-5, 3-14-3, 2-13-5 MOE) targeted to nucleobases 4868 to 4899 of SEQ ID NO: 1
[5] = 3.125 μM, 16 hours (Example 7, Table 15)
[6] = 6.25 μM, 16 hours (Example 7, Table 15)
[7] = 12.5 μM, 16 hours (Example 7, Table 15)
[8] = 25 μM, 16 hours (Example 7, Table 15)
[9] = 50 μM, 16 hours (Example 7, Table 15)
[10] = 100 μM, 16 hours (Example 7, Table 15)
[11] = gapmers targeted to nucleobases 15188 to 15211 of SEQ ID NO: 1 (Table 13)
[12] = 3.125 μM, 16 hours (Example 8, Table 16)
[13] = 6.25 μM, 16 hours (Example 8, Table 16)
[14] = 12.5 μM, 16 hours (Example 8, Table 16)
[15] = 25 μM, 16 hours (Example 8, Table 16)
[16] = 50 μM, 16 hours (Example 8, Table 16)
[17] = 100 μM, 16 hours (Example 8, Table 16)

| Substance | % Inhibition of human Factor 7 mRNA levels (human Factor 7 mRNA [1]; [4]) [%] | percent inhibition of Factor 7 mRNA, relative to untreated control cells (human Factor 7 mRNA [2]; 3.125 nM) [%] | percent inhibition of Factor 7 mRNA, relative to untreated control cells (human Factor 7 mRNA [2]; 12.5 nM) [%] | percent inhibition of Factor 7 mRNA, relative to untreated control cells (human Factor 7 mRNA [2]; 25 nM) [%] | percent inhibition of Factor 7 mRNA, relative to untreated control cells (human Factor 7 mRNA [2]; 50 nM) [%] | percent inhibition of Factor 7 mRNA, relative to untreated control cells (human Factor 7 mRNA [2]; 100 nM) [%] | percent inhibition of Factor 7 mRNA, relative to untreated control cells (human Factor 7 mRNA [2]) [%] | percent inhibition of Factor 7 mRNA, relative to untreated control cells (human Factor 7 mRNA [3]; [5]) [%] | percent inhibition of Factor 7 mRNA, relative to untreated control cells (human Factor 7 mRNA [3]; [6]) [%] | percent inhibition of Factor 7 mRNA, relative to untreated control cells (human Factor 7 mRNA [3]; [7]) [%] | percent inhibition of Factor 7 mRNA, relative to untreated control cells (human Factor 7 mRNA [3]; [8]) [%] | percent inhibition of Factor 7 mRNA, relative to untreated control cells (human Factor 7 mRNA [3]; [9]) [%] | percent inhibition of Factor 7 mRNA, relative to untreated control cells (human Factor 7 mRNA [3]; [10]) [%] | percent inhibition of Factor 7 mRNA, relative to untreated control cells (human Factor 7 mRNA [3]; [12]) [%] | percent inhibition of Factor 7 mRNA, relative to untreated control cells (human Factor 7 mRNA [3]; [13]) [%] | percent inhibition of Factor 7 mRNA, relative to untreated control cells (human Factor 7 mRNA [3]; [14]) [%] | percent inhibition of Factor 7 mRNA, relative to untreated control cells (human Factor 7 mRNA [3]; [15]) [%] | percent inhibition of Factor 7 mRNA, relative to untreated control cells (human Factor 7 mRNA [3]; [16]) [%] | percent inhibition of Factor 7 mRNA, relative to untreated control cells (human Factor 7 mRNA [3]; [17]) [%] | also measured |
| --- | --- | --- | --- | --- | --- | --- | --- | --- | --- | --- | --- | --- | --- | --- | --- | --- | --- | --- | --- | --- |
| 422217 (antisense eG*eA*eG*dT*dT*d[5mC]*dT*dG*d[5mC]*dA*dG*dG*dA*dG*d[5mC]*dG*dG*e[5mC]*e[5mC]*eT) [compound 422217] | 75 | 8 | 45 | 63 | 79 | 83 | 18 | 15 | 19 | 29 | 55 | 61 | 83 |  |  |  |  |  |  |  |
| 422228 (antisense eT*eG*d[5mC]*dA*dT*dG*dG*dT*dG*dA*dT*dG*d[5mC]*dT*dT*e[5mC]*eT*eG*eA*eA) [compound 422228] |  | 17 | 43 | 60 | 78 | 90 | 25 | 18 | 33 | 40 | 47 | 71 | 83 |  |  |  |  |  |  | % Inhibition of human Factor 7 mRNA levels (human Factor 7 mRNA [1]; [11]): 73% |
| 422229 (antisense eA*eT*dG*d[5mC]*dA*dT*dG*dG*dT*dG*dA*dT*dG*d[5mC]*dT*eT*e[5mC]*eT*eG*eA) [compound 422229] |  | 21 | 53 | 72 | 86 | 92 | 32 | 21 | 30 | 33 | 44 | 65 | 77 | 30 | 45 | 67 | 79 | 90 | 92 | % Inhibition of human Factor 7 mRNA levels (human Factor 7 mRNA [1]; [11]): 71% |
| 422252 (antisense e[5mC]*eG*d[5mC]*d[5mC]*dG*dG*d[5mC]*dT*d[5mC]*dT*dG*d[5mC]*dT*d[5mC]*dA*eT*e[5mC]*e[5mC]*e[5mC]*e[5mC]) [compound 422252] |  | 18 | 45 | 61 | 77 | 87 | 17 | 23 | 12 | 26 | 38 | 58 | 80 |  |  |  |  |  |  | % Inhibition of human Factor 7 mRNA levels (human Factor 7 mRNA [1]; gapmers targeted to nucleobases 13760 to 13789 of SEQ ID NO: 1 (Table 10)): 70% |
| 422292 (antisense eG*eT*dT*d[5mC]*dT*dG*d[5mC]*dA*dG*dG*dA*dG*d[5mC]*dG*dG*e[5mC]*e[5mC]*eT*eA*eA) [compound 422292] | 75 | 13 | 44 | 63 | 81 | 83 | 21 | 36 | 25 | 47 | 59 | 75 | 86 | 31 | 40 | 68 | 75 | 82 | 83 |  |
| 422295 (antisense e[5mC]*eG*dA*dG*dT*dT*d[5mC]*dT*dG*d[5mC]*dA*dG*dG*dA*dG*e[5mC]*eG*eG*e[5mC]*e[5mC]) [compound 422295] | 74 | 17 | 44 | 64 | 80 | 85 | 22 | 10 | 8 | 37 | 58 | 68 | 80 |  |  |  |  |  |  |  |
| 422296 (antisense e[5mC]*e[5mC]*dG*dA*dG*dT*dT*d[5mC]*dT*dG*d[5mC]*dA*dG*dG*dA*eG*e[5mC]*eG*eG*e[5mC]) [compound 422296] | 74 | 21 | 39 | 67 | 78 | 82 | 27 | 62 | 40 | 56 | 56 | 82 | 84 | 47 | 44 | 70 | 78 | 80 | 82 |  |
